{
  "source": "patent US4325947A",
  "about": "(priority 1981, dated 1982)",
  "key": {"Gross leukemia": {"test_system": "Gross leukemia", "experiment": "Activity against disseminated Gross leukemia in mice, i.v. and oral", "details": "for T/C % (survival time treated/controls × 100) / Toxic deaths: day 1", "from_the_text": "(§1) ^3 Medium survival time of treated animals/medium survival time of […]"}, "HeLa cells": {"test_system": "HeLa cells", "experiment": "HeLa cells cloning efficiency in vitro, treatment for 24 hours", "details": "for IC50: read-out: ID50"}, "P388 ascitic leukemia": {"test_system": "P388 ascitic leukemia", "experiment": "Activity against P388 ascitic leukemia in mice, ip", "description": "Activity against P388 ascitic leukemia^1\n^1 Mice were injected ip with 10^6 leukemia cells/mouse. Data of\n^2 Treatment ip on day 1 after tumor inoculum.\nas §1"}, "L1210 leukemia": {"test_system": "L1210 leukemia", "from_the_text": "as §1"}, "experimental leukemias": {"test_system": "experimental leukemias", "experiment": "In vivo antitumor activity/potency versus doxorubicin (general statements)", "set-up": "species or system mice", "from_the_text": "In vivo the compound has been compared to doxorubicin against three different experimental leukemias of mice."}, "[1]": {"details": "Homo sapiens, HeLa, 24 h, read-out: % of controls (HeLa cells cloning efficiency)"}},
  "note": "Values joined by “and” are separate entries in the source; they are usually repeats but may differ in a detail not shown here. Equal values may be shown once. Read-outs that look alike come from different tables or passages of the source.",
  "data": [
    {"smiles": "COc1cccc2c1C(=O)c1c(O)c3c(c(O)c1C2=O)C[C@@](O)(C(=O)CO)C[C@@H]3O[C@H]1C[C@H](N)[C@H](O)[C@H](C)O1", "note": "[Doxorubicin, doxorubicin, reference compound]", "values": [
      {"measurement": "T/C % (survival time treated/controls × 100)", "setting": "Gross leukemia; i.v. 13 mg/kg", "value": 200, "unit": "%"},
      {"measurement": "Toxic deaths", "setting": "Gross leukemia; i.v. 13 mg/kg", "value": "0/18"},
      {"measurement": "Toxic deaths", "setting": "Gross leukemia; i.v. 16.9 mg/kg", "value": "0/18"},
      {"measurement": "T/C % (survival time treated/controls × 100)", "setting": "Gross leukemia; i.v. 16.9 mg/kg, 16.9 mg/kg", "value": "233% and 216%"},
      {"measurement": "activity at 0.0031 µg/mL", "setting": "HeLa cells; [1]", "value": 102, "unit": "%"},
      {"measurement": "activity at 0.0062 µg/mL", "setting": "HeLa cells; [1]", "value": 68, "unit": "%"},
      {"measurement": "activity at 0.0125 µg/mL", "setting": "HeLa cells; [1]", "value": 44, "unit": "%"},
      {"measurement": "IC50", "setting": "HeLa cells; Homo sapiens, HeLa, 24 h", "value": "~10", "unit": "ng/mL"},
      {"measurement": "T/C % (survival time treated/controls × 100)", "setting": "P388 ascitic leukemia; 4.4 mg/kg ip on day 1", "value": "210% and 180%"},
      {"measurement": "Toxic deaths", "setting": "P388 ascitic leukemia; 4.4 mg/kg ip on day 1", "value": "0/16"},
      {"measurement": "T/C % (survival time treated/controls × 100)", "setting": "P388 ascitic leukemia; 6.6 mg/kg ip on day 1", "value": "220% and 190%"},
      {"measurement": "Toxic deaths", "setting": "P388 ascitic leukemia; 6.6 mg/kg ip on day 1", "value": "0/16"},
      {"measurement": "T/C % (survival time treated/controls × 100)", "setting": "P388 ascitic leukemia; 10.0 mg/kg ip on day 1", "value": "225% and 220%"},
      {"measurement": "Toxic deaths", "setting": "P388 ascitic leukemia; 10.0 mg/kg ip on day 1", "value": "0/16"},
      {"measurement": "T/C % (survival time treated/controls × 100)", "setting": "L1210 leukemia; 10 mg/kg iv on day 1", "value": 133, "unit": "%"},
      {"measurement": "Toxic deaths", "setting": "L1210 leukemia; 10 mg/kg iv on day 1", "value": "0/10"},
      {"measurement": "T/C % (survival time treated/controls × 100)", "setting": "L1210 leukemia; 13 mg/kg iv on day 1", "value": 150, "unit": "%"},
      {"measurement": "Toxic deaths", "setting": "L1210 leukemia; 13 mg/kg iv on day 1", "value": "0/9"},
      {"measurement": "T/C % (survival time treated/controls × 100)", "setting": "L1210 leukemia; 16.9 mg/kg iv on day 1", "value": 166, "unit": "%"},
      {"measurement": "Toxic deaths", "setting": "L1210 leukemia; 16.9 mg/kg iv on day 1", "value": "1/10"}
    ]},
    {"smiles": "C[C@H]1C[C@@H](N)C[C@H](O[C@H]2C[C@](O)(C(=O)CO)Cc3c(O)c4c(c(O)c32)C(=O)c2ccccc2C4=O)O1", "note": "[XOO-0144, 4-demethoxy-4'-deoxydoxorubicin]", "values": [
      {"measurement": "T/C % (survival time treated/controls × 100)", "setting": "Gross leukemia; i.v. 0.35 mg/kg", "value": 100, "unit": "%"},
      {"measurement": "Toxic deaths", "setting": "Gross leukemia; i.v. 0.35 mg/kg", "value": "0/8"},
      {"measurement": "T/C % (survival time treated/controls × 100)", "setting": "Gross leukemia; i.v. 0.53 mg/kg", "value": 108, "unit": "%"},
      {"measurement": "Toxic deaths", "setting": "Gross leukemia; i.v. 0.53 mg/kg", "value": "0/8"},
      {"measurement": "T/C % (survival time treated/controls × 100)", "setting": "Gross leukemia; i.v. 0.8 mg/kg", "value": 116, "unit": "%"},
      {"measurement": "Toxic deaths", "setting": "Gross leukemia; i.v. 0.8 mg/kg", "value": "0/10"},
      {"measurement": "Toxic deaths", "setting": "Gross leukemia; i.v. 1.2 mg/kg", "value": "0/20"},
      {"measurement": "T/C % (survival time treated/controls × 100)", "setting": "Gross leukemia; i.v. 1.2 mg/kg, 1.2 mg/kg", "value": "150% and 208%"},
      {"measurement": "T/C % (survival time treated/controls × 100)", "setting": "Gross leukemia; i.v. 1.8 mg/kg", "value": 133, "unit": "%"},
      {"measurement": "Toxic deaths", "setting": "Gross leukemia; i.v. 1.8 mg/kg", "value": "9/10"},
      {"measurement": "T/C % (survival time treated/controls × 100)", "setting": "Gross leukemia; i.v. 2.7 mg/kg", "value": 116, "unit": "%"},
      {"measurement": "Toxic deaths", "setting": "Gross leukemia; i.v. 2.7 mg/kg", "value": "10/10"},
      {"measurement": "T/C % (survival time treated/controls × 100)", "setting": "Gross leukemia; oral 2.7 mg/kg", "value": 150, "unit": "%"},
      {"measurement": "Toxic deaths", "setting": "Gross leukemia; oral 2.7 mg/kg", "value": "1/8"},
      {"measurement": "T/C % (survival time treated/controls × 100)", "setting": "Gross leukemia; oral 5.4 mg/kg", "value": 133, "unit": "%"},
      {"measurement": "Toxic deaths", "setting": "Gross leukemia; oral 5.4 mg/kg", "value": "4/6"},
      {"measurement": "T/C % (survival time treated/controls × 100)", "setting": "Gross leukemia; oral 10.8 mg/kg", "value": 100, "unit": "%"},
      {"measurement": "Toxic deaths", "setting": "Gross leukemia; oral 10.8 mg/kg", "value": "5/5"},
      {"measurement": "activity by oral route", "setting": "Gross leukemia; oral, Gross leukemia", "value": "active also when given by oral route"},
      {"measurement": "cytotoxicity relative to doxorubicin", "setting": "HeLa cells; HeLa cells cloning efficiency, more cytotoxic than doxorubicin", "value": "about 25 times"},
      {"measurement": "activity at 20 pg/mL", "setting": "HeLa cells; [1]", "value": 102, "unit": "%"},
      {"measurement": "activity at 90 pg/mL", "setting": "HeLa cells; [1]", "value": 72, "unit": "%"},
      {"measurement": "activity at 0.00039 µg/mL", "setting": "HeLa cells; [1]", "value": 69, "unit": "%"},
      {"measurement": "activity at 0.0015 µg/mL", "setting": "HeLa cells; [1]", "value": 26, "unit": "%"},
      {"measurement": "activity at 0.0062 µg/mL", "setting": "HeLa cells; [1]", "value": 1, "unit": "%"},
      {"measurement": "activity at 0.025 µg/mL", "setting": "HeLa cells; [1]", "value": 0, "unit": "%"},
      {"measurement": "IC50", "setting": "HeLa cells; Homo sapiens, HeLa, 24 h", "value": "~0.4", "unit": "ng/mL"},
      {"measurement": "potency in vitro in comparison with doxorubicin (summary, words)", "setting": "HeLa cells; in comparison with doxorubicin", "value": "more potent in vitro"},
      {"measurement": "potency in vitro relative to doxorubicin", "setting": "HeLa cells; in vitro, with reference to doxorubicin", "value": "10-20 times"},
      {"measurement": "T/C % (survival time treated/controls × 100)", "setting": "P388 ascitic leukemia; 0.04 mg/kg ip on day 1", "value": 130, "unit": "%"},
      {"measurement": "T/C % (survival time treated/controls × 100)", "setting": "P388 ascitic leukemia; 0.12 mg/kg ip on day 1", "value": 170, "unit": "%"},
      {"measurement": "T/C % (survival time treated/controls × 100)", "setting": "P388 ascitic leukemia; 0.25 mg/kg ip on day 1", "value": "205% and 195%"},
      {"measurement": "T/C % (survival time treated/controls × 100)", "setting": "P388 ascitic leukemia; 0.5 mg/kg ip on day 1", "value": 235, "unit": "%"},
      {"measurement": "T/C % (survival time treated/controls × 100)", "setting": "P388 ascitic leukemia; 1 mg/kg ip on day 1", "value": "75% and 90%"},
      {"measurement": "Toxic deaths", "setting": "P388 ascitic leukemia; 1 mg/kg ip on day 1", "value": "7/16"},
      {"measurement": "T/C % (survival time treated/controls × 100)", "setting": "P388 ascitic leukemia; 5 mg/kg ip on day 1", "value": 55, "unit": "%"},
      {"measurement": "Toxic deaths", "setting": "P388 ascitic leukemia; 5 mg/kg ip on day 1", "value": "8/8"},
      {"measurement": "optimal doses", "setting": "P388 ascitic leukemia; administered ip", "value": "0.25 to 0.5", "unit": "mg/kg"},
      {"measurement": "potency relative to doxorubicin, ip", "setting": "P388 ascitic leukemia; administered ip, mice bearing P388 ascitic leukemia", "value": "10-20 times"},
      {"measurement": "antitumor activity compared with doxorubicin", "setting": "P388 ascitic leukemia; ip, 0.25-0.5 mg/kg vs doxorubicin from 4 to 10 mg/kg", "value": "antitumor activity of the same order of magnitude as that of doxorubicin"},
      {"measurement": "potency relative to doxorubicin, iv", "setting": "experimental leukemias; administered iv", "value": "about 10 times"},
      {"measurement": "potency in vivo in comparison with doxorubicin (summary, words)", "setting": "experimental leukemias; both i.p. and i.v. administration", "value": "more potent in vivo (both i.p. and i.v. administration)"},
      {"measurement": "potency in vivo relative to doxorubicin", "setting": "experimental leukemias; in vivo, with reference to doxorubicin", "value": "about 10 times"},
      {"measurement": "activity by oral route", "setting": "experimental leukemias", "value": "active also when administered orally"},
      {"measurement": "activity by oral route", "setting": "experimental leukemias; listed as 4-demethoxy-4'-deoxydoxorubicin", "value": "active also when given by oral route"},
      {"measurement": "T/C % (survival time treated/controls × 100)", "setting": "L1210 leukemia; 0.9 mg/kg iv on day 1", "value": 183, "unit": "%"},
      {"measurement": "Toxic deaths", "setting": "L1210 leukemia; 0.9 mg/kg iv on day 1", "value": "0/10"},
      {"measurement": "T/C % (survival time treated/controls × 100)", "setting": "L1210 leukemia; 1.2 mg/kg iv on day 1", "value": 191, "unit": "%"},
      {"measurement": "Toxic deaths", "setting": "L1210 leukemia; 1.2 mg/kg iv on day 1", "value": "0/10"},
      {"measurement": "T/C % (survival time treated/controls × 100)", "setting": "L1210 leukemia; 1.56 mg/kg iv on day 1", "value": 116, "unit": "%"},
      {"measurement": "Toxic deaths", "setting": "L1210 leukemia; 1.56 mg/kg iv on day 1", "value": "6/10"},
      {"measurement": "activity against L1210 leukemia in comparison with doxorubicin (summary, words)", "setting": "L1210 leukemia; in comparison with doxorubicin", "value": "more active against L1210 leukemia"},
      {"measurement": "tolerated doses", "setting": "L1210 leukemia; iv", "value": "0.9 mg/kg and 1.2 mg/kg"},
      {"measurement": "effectiveness compared with doxorubicin", "setting": "L1210 leukemia; iv, tolerated doses 0.9 and 1.2 mg/kg vs doxorubicin 13 mg/kg", "value": "more effective than doxorubicin"}
    ]}
  ]
}
